Experimental findings from patent US9586993B2, “CD44v6-derived peptides for treating pancreatic cancer” (AMCURE GMBH, priority 2012, dated 2017) are described below.

Series [1] relates to L3.6p1 pancreatic carcinoma cells. The series can be described thus: Human orthotopic model, L3.6p1 cells in the pancreas of nude mice. The note with it: for outgrowth / size of the primary tumor: 20 μg per injection i.p. three times per week for three weeks; for outgrowth / size of the primary tumor / metastasis formation (liver): start one week after implantation; for metastasis formation (liver): 20 μg per injection i.p. three times per week. The class given is in vivo, mouse. How it is done:
In the case of the human orthotopic model, L3.6p1 pancreatic carcinoma cells (passage 24-26) were suspended in Hank's balanced salt solution (Invitrogen, Karlsruhe, Germany) after trypsinization. The cells were injected orthotopically in the pancreas of male nude mice as described (Bruns C J et al. (1999) Neoplasia 1(1):50-62). Two groups of 15 mice each were injected i.p. 7 days later with either the human v6 peptide respectively rat control peptide (20 μg). For all experiments described and depicted herein either the rat 14mer control peptide or the human 14mer peptide were used. All experiments were then repeated with the rat 5mer control peptide or the human 5mer peptide (N-R-W-H-E, SEQ ID NO: 2). […] The injection was repeated three times per week for 21 days. Two days after the last treatment the animals were killed.
(§1) 7 μm thick paraffin sections were deparaffinized and rehydrated. For P-Met staining antigen unmasking was achieved by boiling the slides in 1 mM EDTA pH 8.0 followed by incubation for 15 minutes at a sub-boiling temperature, for CD31 staining the sections were treated with Proteinase K (8 μg/ml) for 10 min at 37° C. For immunofluorescence staining of P-Met, unspecific binding was blocked with 5% goat serum (DAKO, Glostrup, Denmark) (diluted in 1×PBS/0.3% Triton X-100) for 60 minutes. In the case of immunohistochemistry, endogenous peroxidases were at first blocked with 3% H2O2 in PBS followed by incubation with biotin blocking system (Dako, Glostrup, Denmark) and then unspecific binding was inhibited by incubation with 5% FCS in PBS. The sections were incubated with the P-Met antibody (D26, dilution 1:50 in 1×PBS/1% BSA/0.3% Triton X-100), Met antibody (C-28, dilution 1:50), GFP antibody (sc-101525, dilution 1:50) or antibody (5 μg/ml) over night or VFF18 (5 μg/ml) o/n at 4° C. After washing in PBS the sections were incubated with Alexa Fluor R 546 goat anti-rabbit (in case of immunofluorescence P-Met and Met staining, dilution 1:500) or a biotinylated secondary antibody (for immunohistochemical stainings rabbit anti-rat antibody for VFF18 and CD31, goat anti-rabbit for P-Met, cleaved Caspase-3 and cleaved Caspase-8 and rabbit anti-mouse for GFP, dilution 1:500) for 45 minutes. For DAB (3,3′-diaminobenzidine) staining the sections were treated with a streptavidin-peroxidase conjugate (Dako, Glostrup, Denmark) and developed with DAB substrate system (3,3′-diaminobenzidine; Biozol, Eching, Germany) For immunofluorescence DAPI was used for nuclear staining.
The three CD44v6 specific compounds (v6 5mer, PEG840-v6 5mer and PEG2000-v6 5mer of human origin) and a control peptide were applied in three concentrations (2 μg, 20 μg, 200 μg per injection) three times per week i.p. for 4 weeks. One week before start of the treatment the L3.6p1 tumor cells were orthotopically implanted into nude mice.
Animals were implanted orthotopically with L3.6p1 cells. Tumor growth was allowed for one week before the treatment with the linear v6 14mer, the cyclic v6 8mer as well as the control peptide (rat v6 14mer) was started. All peptides were injected three times per week at a concentration of 0.2, 2 and 10 μg per injection for 3 weeks. At the end of the treatment animals were sacrificed.
A comparison of different CD44v6 peptide derivatives was performed in animals bearing a orthotopic L3.6p1 tumor. 10 groups of 5 animals each received a dose of 20 μg peptide per injection three times per week for 3 weeks with the compounds listed in Table 4. Three weeks after starting the treatment the animals were sacrificed and analyzed for macroscopic metastases and tumor volume.

A further series relates to BSp73ASs6 cells. Description: Rat syngeneic model, subcutaneous BSp73ASs6 tumors, metastasis formation. The class given is in vivo. The note with it: 200 μg per injection three times a week; for outgrowth of primary tumors: 28 days; for metastasis (axillary lymph nodes and lungs): intra-tumoral or intravenously, start one week after cell injection. On the procedure: In the case of the rat syngeneic model, 1×10^6 pancreatic cells (BSp73AS and its transfectants) were subcutaneously injected into the right posterior flank of the animals. Tumors developed for four weeks. During this time period animals injected with BSp73ASs6 cells expressing Met-shRNA or control-shRNA received doxycycline in the drinking water. At the end of the experiment, primary tumors were isolated. Lungs and axillary lymph nodes were analyzed. The tissues were incubated for 24 h in a zinc-fixative (0.5 g calcium acetate, 5.0 g zinc acetate, 5.0 g zinc chloride, in 1 L 0.1 M Tris pH 7.4) and embedded in paraffin for further analysis. In case of peptide or antibody treatment tumors developed for one week before the first treatment. Where indicated, animals received 200 μg of peptide or antibody per injection three times per week for four weeks. Tumor growth was monitored weekly using a caliper Animals were killed at day 28 or 30 after start of the treatment.
For histomorphological analysis paraffin-embedded sections of lungs were stained with hematoxylin and eosin and periodic acid-Schiff (H&E or PAS). Serial sections of the whole tissue blocks were examined by analyzing slices every 20 μm; in each slice, the presence and the extension of the metastatic deposit was assessed, according to the procedure routinely used by pathologists to evaluate the presence of micrometastases.
Rat peptides had the sequences KEKWFENEWQGKNP (SEQ ID NO: 10) and NEWQG (SEQ ID NO: 11). BSp73ASs6 cells were subcutaneously injected into syngeneic rats and rat CD44v6 peptides of SEQ ID NO: 10 or SEQ ID NO: 11 (or mouse control peptides) or the CD44v6 antibody (or IgGs as a control) were injected intra-tumoral or intravenously three times a week. […] This is compatible with the fact that also BSp73AS cells or BSp73ASv1-10Δv6 cells can induce the formation of primary tumors similarly to the v6 transfectants.

Series [2] relates to BSp73ASs6 lung metastases. The series can be described thus: Apoptosis in established lung metastases (cleaved Caspase-3 and Caspase-8 staining). The class given is in vivo, rat. The settings on record: for apoptotic cells in lung metastases (cleaved Caspase 3): injection every second day from three weeks after cell injection. How it is done: as §1
One hypothesis for the disappearance of metastases is that the peptides induce apoptosis of CD44v6-expressing metastatic cells in the secondary organs. In order to test this hypothesis, the experiment described above using the BSp73ASs6 cells was repeated. The cells were injected subcutaneously in syngeneic rats and the tumor was allowed to develop for three weeks. After that time the animals were separated in two groups of 10 animals that were injected either with the specific rat CD44v6 peptide or with the control peptide (mouse) every second day. One day following each injection of the peptide, the lungs of one animal were removed and apoptosis was measured using an antibody that detects the cleaved form of Caspase 3. […] From these experiments, it is concluded that the CD44v6 peptide induces apoptosis of metastatic cells.
To discriminate whether the intrinsic pathway characterized by the release of mitochondrial proteins or the extrinsic pathway activated by ligand-bound death receptors for apoptosis was induced by the v6 peptide the expression of cleaved caspase-8 in the metastases treated with the v6 peptide was investigated. […] From these experiments we conclude that the CD44v6 peptide induces apoptosis of metastatic cells via the extrinsic apoptotic pathway.

The test system of series [3] is Met activation and downstream signaling to ERK. The series can be described thus: HGF-induced activation of Met and ERK in L3.6p1 cells (western blot). Format: cell-based, human. The note with it: HGF 10 ng/ml. On the procedure:
Serum-starved cells (24 hours) were induced with the growth factor HGF (10 ng/mL) at 37° C. for 5 minutes. Where indicated, the cells were treated with peptides (100 ng/ml) prior to induction at 37° C. for 10 minutes (100 ng/mL CD44v6 peptide or control peptide). Following the induction with HGF, cells were washed with ice-cold phosphate-buffered saline (PBS). To detect activated Met and Erk, cells were lysed in sodium dodecyl sulfate (SDS)-sample buffer containing 100 mM dithiothreitol (DTT), boiled and subjected to western blot analysis using antibodies against phospho-Met and ERK. The loading controls were performed on the same blot after stripping (62.5 mM Tris, pH 6.8, 2% SDS, 0.8% DTT) by probing with the Met respectively ERK antibody. Blots were stained using the enhanced chemiluminescence system (Thermo Fisher Scientific, Schwerte, Germany). Bands in western blot analysis were quantified with the program Image J (National Institutes of Health).
To expand the studies to human pancreatic tumors, the highly metastatic human pancreatic carcinoma cells L3.6p1 (Bruns, et al. Neoplasia (1999), 1(1):50-62) were investigated. These cells originate from the […] cells that have been passaged several times in the liver and the pancreas, a step that rendered them more and more metastatic. It was confirmed that Met is dependent on CD44v6 for its activation and signaling in these cells (FIG. 4A). The L3.6p1 cells were treated with HGF in the presence or absence of a human v6 peptide of SEQ ID NO: 2 or SEQ ID NO:6 and Met activation and downstream signaling to ERK was measured.

The mark [4] stands for this setting: listed as rat-specific peptide (ctrl peptide).

“Also recorded” adds a separate entry of the source. No end group written: not given here. *: point of attachment. DOTA = O=C(O)CN1CCN(CC(=O)O)CCN(CC(=O)*)CCN(CC(=O)O)CC1; PEG2000 = polyethylene glycol, 2000 Da; Myristoyl = CCCCCCCCCCCCCC(=O)*

In the case of DOTA-cy[KRWHE] [cycl 5 mer], in series [1], the “outgrowth / size of the primary tumor” value was “strongest reduction of tumor size” and the “metastasis formation (liver)” value was “complete inhibition of metastasis”.
On to “DOTA-keqwfGNRWHEGyr [DOTA CD44v6-14 [daa7]]”, for which, in series [1], the “metastasis formation (liver)” value is recorded as “decrease of metastatic spreading”.
For the substance “KEKWFENEWQGKNP [rat 14mer, rat CD44v6 14mer peptide; control in human systems]”, in the series on BSp73ASs6 cells, the “metastasis and micro-metastasis in lung sections (PAS and H&E staining)” value is “neither metastasis nor micro-metastasis could be detected”; the “outgrowth of primary tumors” value is reported as “not influenced by either treatment”; the “metastasis (axillary lymph nodes and lungs)” value is recorded as “completely inhibited metastasis”. In addition, in series [1] (setting [4]), the “outgrowth / size of the primary tumor” value is on record as “had no influence on metastasis formation or on growth of the primary tumor” and the “metastasis formation (liver)” value is listed as “neither any influence on metastasis formation; also recorded: had no influence on metastasis formation or on growth of the primary tumor”. Besides, in series [2] (cleaved Caspase 3), the “apoptosis twelve days after injection” value is “less apoptosis was observed”. The “time of maximum of apoptosis” value in series [2] (cleaved Caspase 3, injection every second day) is reported as “eight days after the first injection”. In series [2] (injection every second day), the “cleaved caspase-8 in lung metastases” value was “kinetic of activation of caspase-8 similar to the one obtained for caspase-3” and the “lung metastasis at day twenty-two” value is “no metastasis could be detected anymore”. The “apoptotic cells in lung metastases (cleaved Caspase 3)” value in series [2] is reported as “detected as early as three days after the first injection”. In addition, the “inhibition of HGF-induced activation (phosphorylation) of Met and ERK” value in series [3] was “had no influence on receptor activation and signal transduction”.
As to “Myr-KEQWFGNRWHEGYR (Myristoyl-KEQWFGNRWHEGYR) [Myristoyl-14-mer]”, the “outgrowth / size of the primary tumor” value in series [1] is “no inhibitory effect on tumor growth”.
For the substance “Myr-Y-cy[KGNRWHEG] (Myristoyl-YKGNRWHEG; also: cyclic, closure not given here, Myr-Tyr attached, site not given here) [Myr-Y-cycl 8 mer]”, in series [1], the “outgrowth / size of the primary tumor” value was “significant reduction in tumor growth” and the “metastasis formation (liver)” value was “decrease of metastatic spreading”.
Consider “NEWQG [rat 5mer, rat CD44v6 5mer peptide]”, for which, in the series with BSp73ASs6 cells, the “metastasis and micro-metastasis in lung sections (PAS and H&E staining)” value is on record as “neither metastasis nor micro-metastasis could be detected”; the “outgrowth of primary tumors” value is listed as “not influenced by either treatment”; the “metastasis (axillary lymph nodes and lungs)” value is reported as “completely inhibited metastasis”. In addition, the “results in the human orthotopic model compared with the 14mer peptides” value in series [1] (20 μg i.p. three times per week for 21 days) is “same results as for the 14mer peptides were observed”. The “inhibition of HGF-induced activation (phosphorylation) of Met and ERK” value in series [3] is “had no influence on receptor activation and signal transduction”.
With NRWHE [human 5mer, NRWHE], in series [1] (200 μg per injection i.p. three times per week for 4 weeks), the “side effects in the animals” value is listed as “did not lead to side effects”.
In the case of “PEG840-KEQWFGNRWHEGYR-OH [PEG840 14-mer]”, in series [1], the “outgrowth / size of the primary tumor” value is “significant reduction in tumor growth” and the “metastasis formation (liver)” value was “decrease of metastatic spreading”.
For “PEG2000-KEQWFGNRWHEGYR-OH [PEG2000 14-mer]”, in series [1], the “outgrowth / size of the primary tumor” value is on record as “strongest reduction of tumor size” and the “metastasis formation (liver)” value is given as “decrease of metastatic spreading”. Besides, in series [1] (listed as PEGylated 14mer (PEG 2000)), the “outgrowth / size of the primary tumor” value was “significant reduction in tumor growth”.
Turning to “mouse control peptides: mouse CD44v6 peptide used as control in the rat system (WFQNGWQGKNP) [reference compound]”, in the series on BSp73ASs6 cells, the “metastasis (axillary lymph nodes and lungs)” value is reported as “numerous metastases were detected in the lungs”. The “lung metastasis at day twenty-two” value in series [2] (injection every second day) is given as “metastatic spreading was evident in the lungs”. In addition, in series [2], the “apoptotic cells in lung metastases (cleaved Caspase 3)” value was “No apoptosis at all was detected”.
Regarding “{DOTA}-KEQWFGNRWHEGYR [DOTA CD44v6-14 [r^14]]”, the “metastasis formation (liver)” value in series [1] was “complete inhibition of metastasis”.
